Experimental data taken from paper PMC9333455, “Drug repurposing based on a quantum-inspired method versus classical fingerprinting uncovers potential antivirals against SARS-CoV-2” (PLoS Computational Biology, 2022).

System: SARS-CoV-2 variants Alpha (B.1.1.7), Beta (B.1.351), Delta (B.617.2)
Format: cell-based
Details: Vero E6 and Caco-2 cells, 48 h

COc1nc(N)nc2c1ncn2[C@@H]1O[C@H](COP(=O)(N[C@@H](C)C(=O)OCC(C)(C)C)Oc2cccc3ccccc23)[C@@H](O)[C@@]1(C)O (stereo partly shown) [BMS-986094]
replication of panel of SARS-CoV-2 variant isolates (in words): suppressed the replication
